Test results taken from patent US10301664B2, “Repurposing non-antimicrobial drugs and clinical molecules to treat bacterial infections” (Purdue Research Foundation, priority 2015, dated 2019).
In brackets after ≈: the same amount, converted by molar mass. Read-outs that look alike come from different tables or passages of the source.

What was measured:
[1] = test system: Vancomycin-resistant S. aureus (VRSA); assay: MIC and MBC against vancomycin-resistant S. aureus clinical isolates (CLSI); format: cell-based
[2] = test system: MRSA USA200; format: in vivo, BALB/c mice; settings: oral, EB 30 mg/kg or FdUrd 25 mg/kg once daily for three days, monitored six days
Experimental: Animal procedures were approved by the Purdue University Animal Care and Use Committee (PACUC) (protocol no. 1311000988). Eight-week-old female BALB/c mice (Harlan Laboratories, Indianapolis, Ind.) were used for this study. Mice were rendered neutropenic by treatment with cyclophosphamide intraperitoneally (IP) 150 and 100 mg/kg at four days and one day before infection, respectively. Neutropenic mice were inoculated IP with 8×10^8 MRSA USA200. At one hour after infection, the mice were divided into five groups (n=10 per group), and two groups were treated orally with either EB 30 mg/kg or FdUrd 25 mg/kg. Two groups were treated IP with either EB 30 mg/kg or FdUrd 25 mg/kg. One group was used as a control with no treatment. Treatment was continued once daily for two more days (animals received three doses total). Mortality was monitored four times daily for six days, and the cumulative percent survival was determined. The data were subjected to statistical analysis using Kaplan-Meier survival curves. A log rank test was performed for 95% confidence intervals by GraphPad Prism 6.0 (GraphPad Software, La Jolla, Calif.).

[3] = test system: mitochondrial protein synthesis in J774A.1 cells; assay: Mitochondrial biogenesis in-cell ELISA (COX-I / SDH-A); format: cell-based; settings: J774A.1 cells treated for three days
Text: Due to concern about the possible mitochondrial toxicities associated with many antibacterial protein synthesis inhibitors such as linezolid and chloramphenicol, we tested the effect of Auranofin and Ebselen on mitochondrial protein synthesis directly within the mammalian cells.

[4] = test system: clinical isolates of S. aureus; assay: MIC90 over clinical isolates of S. aureus; format: cell-based; settings: Staphylococcus aureus, Table 1, read-out: MIC90 (MIC at which 90% of clinical isolates of S. aureus were inhibited)
[5] = test system: S. Typhimurium; assay: MIC against G-ve with and without colistin: S. Typhimurium; format: cell-based
[6] = test system: Vancomycin-intermediate S. aureus (VISA); assay: MIC and MBC against vancomycin-intermediate S. aureus isolates (CLSI); format: cell-based; settings: Staphylococcus aureus
[7] = test system: E. fecalis ATCC 51229 (VRE); assay: MIC and MBC against E. fecalis VRE (CLSI); format: cell-based; settings: Enterococcus
Experimental: The NIH Clinical Collections 1 and 2 (http://www.nihclinicalcollection.com) containing 727 FDA approved drugs and small molecules previously used in human clinical trials with known safety profiles were screened against ESKAPE pathogens. The library was initially screened at a single concentration of 16 μM to identify “hit” non-antibacterial drugs. Once the antimicrobial activity of the drugs was confirmed, we determined their MICs and minimum bactericidal concentrations (MBCs) according to the Clinical and Laboratory Standards Institute (CLSI).

[8] = test system: E. faecium ATCC 700221 (VRE); assay: MIC and MBC against E. faecium VRE (CLSI), Table 1; format: cell-based; settings: Enterococcus faecium
[9] = test system: VRE (14) clinical isolates; assay: MIC against Gram +ve clinical isolates: VRE; format: cell-based, enterococcus
[10] = test system: Methicillin-sensitive S. aureus (MSSA); assay: MIC and MBC against methicillin-sensitive S. aureus isolates (CLSI); format: cell-based; settings: Staphylococcus aureus
[11] = test system: Methicillin resistant S. aureus (MRSA); assay: MIC and MBC against methicillin resistant S. aureus clinical isolates (CLSI); format: cell-based; settings: Staphylococcus aureus
[12] = test system: MRSA USA300; assay: Library hits: MIC/MBC against MRSA; format: cell-based, Staphylococcus aureus; settings: Staphylococcus aureus
[13] = test system: S. epidermidis NRS 101; assay: MIC and MBC against S. epidermidis (CLSI); format: cell-based; settings: Staphylococcus epidermidis, NRS101
[14] = test system: vancomycin resistant E. faecium ATCC 700221 (VRE); assay: Library hits: MIC/MBC against VRE; format: cell-based; settings: VRE

## O=c1c2ccccc2[se]n1-c1ccccc1 [Ebselen]
[1]; Staphylococcus aureus, VRSA
  MIC: 0.125 µg/mL (≈ 0.456 µM)
[1]; Staphylococcus aureus, VRSA, VRSA1, read-out: MBC
  MBC: 0.25 µg/mL (≈ 0.912 µM)
[1]; Staphylococcus aureus, VRSA, VRSA1, read-out: MIC
  MIC: 0.25 µg/mL (≈ 0.912 µM)
[1]; Staphylococcus aureus, VRSA, VRSA2, read-out: MBC
  MBC: 0.25 µg/mL (≈ 0.912 µM)
[1]; Staphylococcus aureus, VRSA, VRSA2, read-out: MIC
  MIC: 0.25 µg/mL (≈ 0.912 µM)
[1]; Staphylococcus aureus, VRSA, VRSA3a, read-out: MBC
  MBC: 0.25 µg/mL (≈ 0.912 µM)
[1]; Staphylococcus aureus, VRSA, VRSA3a, read-out: MIC
  MIC: 0.25 µg/mL (≈ 0.912 µM)
[1]; Staphylococcus aureus, VRSA, VRSA3b, read-out: MBC
  MBC: 1 µg/mL (≈ 3.65 µM)
[1]; Staphylococcus aureus, VRSA, VRSA3b, read-out: MIC
  MIC: 0.25 µg/mL (≈ 0.912 µM)
[1]; Staphylococcus aureus, VRSA, VRSA4
  MBC: 0.125 µg/mL (≈ 0.456 µM)
[1]; Staphylococcus aureus, VRSA, VRSA5, read-out: MBC
  MBC: 0.25 µg/mL (≈ 0.912 µM)
[1]; Staphylococcus aureus, VRSA, VRSA5, read-out: MIC
  MIC: 0.25 µg/mL (≈ 0.912 µM)
[1]; Staphylococcus aureus, VRSA, VRSA6, read-out: MBC
  MBC: 0.5 µg/mL (≈ 1.82 µM)
[1]; Staphylococcus aureus, VRSA, VRSA6, read-out: MIC
  MIC: 0.25 µg/mL (≈ 0.912 µM)
[1]; Staphylococcus aureus, VRSA, VRSA7, read-out: MBC
  MBC: 0.5 µg/mL (≈ 1.82 µM)
[1]; Staphylococcus aureus, VRSA, VRSA7, read-out: MIC
  MIC: 0.5 µg/mL (≈ 1.82 µM)
[1]; Staphylococcus aureus, VRSA, VRSA8
  MBC: 0.125 µg/mL (≈ 0.456 µM)
[1]; Staphylococcus aureus, VRSA, VRSA9, read-out: MBC
  MBC: 0.5 µg/mL (≈ 1.82 µM)
[1]; Staphylococcus aureus, VRSA, VRSA9, read-out: MIC
  MIC: 0.25 µg/mL (≈ 0.912 µM)
[1]; Staphylococcus aureus, VRSA, VRSA10, read-out: MBC
  MBC: 0.25 µg/mL (≈ 0.912 µM)
[1]; Staphylococcus aureus, VRSA, VRSA10, read-out: MIC
  MIC: 0.25 µg/mL (≈ 0.912 µM)
[1]; Staphylococcus aureus, VRSA, VRSA11b, read-out: MBC
  MBC: 0.25 µg/mL (≈ 0.912 µM)
[1]; Staphylococcus aureus, VRSA, VRSA11b, read-out: MIC
  MIC: 0.25 µg/mL (≈ 0.912 µM)
[1]; Staphylococcus aureus, VRSA, VRSA12, read-out: MBC
  MBC: 0.5 µg/mL (≈ 1.82 µM)
[1]; Staphylococcus aureus, VRSA, VRSA12, read-out: MIC
  MIC: 0.25 µg/mL (≈ 0.912 µM)
[1]; Staphylococcus aureus, VRSA, VRSA13, read-out: MBC
  MBC: 0.25 µg/mL (≈ 0.912 µM)
[1]; Staphylococcus aureus, VRSA, VRSA13, read-out: MIC
  MIC: 0.25 µg/mL (≈ 0.912 µM)
[1]; VRSA8
  MIC: 0.125/0.125 mg/L
[1]; VRSA11a
  MIC: 0.125 µg/mL (≈ 0.456 µM)
[2]
  mice survival compared to that of control: 60%
[3]
  inhibition of mitobiogenesis: less than 10%
[4]
  MIC90: 0.25 µg/mL (≈ 0.912 µM)
[5]; with sub-inhibitory colistin 0.25 μg/ml
  MIC, colistin (+): 0.0625 µg/mL (≈ 0.228 µM)
[5]; without colistin
  MIC, colistin (−): 32 µg/mL (≈ 117 µM)
[6]; NRS 1 / VISA
  MBC: 0.125 µg/mL (≈ 0.456 µM)
  MIC: 0.125 µg/mL (≈ 0.456 µM)
[6]; NRS 37 / VISA
  MBC: 0.125 µg/mL (≈ 0.456 µM)
  MIC: 0.125 µg/mL (≈ 0.456 µM)
[7]
  MBC: 0.5 µg/mL (≈ 1.82 µM)
  MIC: 0.5 µg/mL (≈ 1.82 µM)
[8]
  MBC: 1 µg/mL (≈ 3.65 µM)
  MIC: 0.5 µg/mL (≈ 1.82 µM)
[9]; Enterococcus, read-out: MIC50
  MIC50: 0.5 µg/mL (≈ 1.82 µM)
[9]; second column per drug
  MIC50: 0.5 µg/mL (≈ 1.82 µM)
[10]; MSSA / NRS 72, read-out: MBC
  MBC: 0.5 µg/mL (≈ 1.82 µM)
[10]; MSSA / NRS 72, read-out: MIC
  MIC: 0.25 µg/mL (≈ 0.912 µM)
[10]; MSSA / NRS 77, read-out: MBC
  MBC: 1 µg/mL (≈ 3.65 µM)
[10]; MSSA / NRS 77, read-out: MIC
  MIC: 0.25 µg/mL (≈ 0.912 µM)
[10]; MSSA / NRS 846
  MBC: > 64 µg/mL
  MIC: 0.125 µg/mL (≈ 0.456 µM)
[10]; MSSA / NRS 860, read-out: MBC
  MBC: 0.25 µg/mL (≈ 0.912 µM)
[10]; MSSA / NRS 860, read-out: MIC
  MIC: 0.25 µg/mL (≈ 0.912 µM)
[11]; MRSA / NRS 70, read-out: MBC
  MBC: 0.25 µg/mL (≈ 0.912 µM)
[11]; MRSA / NRS 70, read-out: MIC
  MIC: 0.25 µg/mL (≈ 0.912 µM)
[11]; MRSA / NRS 71, read-out: MBC
  MBC: 0.25 µg/mL (≈ 0.912 µM)
[11]; MRSA / NRS 71, read-out: MIC
  MIC: 0.25 µg/mL (≈ 0.912 µM)
[11]; MRSA / NRS 100, read-out: MBC
  MBC: 0.5 µg/mL (≈ 1.82 µM)
[11]; MRSA / NRS 100, read-out: MIC
  MIC: 0.25 µg/mL (≈ 0.912 µM)
[11]; MRSA / NRS 108, read-out: MBC
  MBC: 0.25 µg/mL (≈ 0.912 µM)
[11]; MRSA / NRS 108, read-out: MIC
  MIC: 0.25 µg/mL (≈ 0.912 µM)
[11]; MRSA / NRS 119
  MBC: 0.25 µg/mL (≈ 0.912 µM)
  MIC: 0.125 µg/mL (≈ 0.456 µM)
[11]; MRSA / NRS 123, read-out: MBC
  MBC: 0.5 µg/mL (≈ 1.82 µM)
[11]; MRSA / NRS 123, read-out: MIC
  MIC: 0.25 µg/mL (≈ 0.912 µM)
[11]; MRSA / NRS 194, read-out: MBC
  MBC: 1 µg/mL (≈ 3.65 µM)
[11]; MRSA / NRS 194, read-out: MIC
  MIC: 0.25 µg/mL (≈ 0.912 µM)
[11]; MRSA / NRS 382
  MBC: 0.125 µg/mL (≈ 0.456 µM)
  MIC: 0.125 µg/mL (≈ 0.456 µM)
[11]; MRSA / NRS 383
  MBC: 0.125 µg/mL (≈ 0.456 µM)
  MIC: 0.125 µg/mL (≈ 0.456 µM)
[11]; MRSA / NRS 384
  MBC: 0.125 µg/mL (≈ 0.456 µM)
  MIC: 0.125 µg/mL (≈ 0.456 µM)
[11]; MRSA / NRS 385, NRS 385, read-out: MBC
  MBC: 1 µg/mL (≈ 3.65 µM)
[11]; MRSA / NRS 385, NRS 385, read-out: MIC
  MIC: 0.5 µg/mL (≈ 1.82 µM)
[11]; MRSA / NRS 386
  MBC: 1 µg/mL (≈ 3.65 µM)
  MIC: 0.125 µg/mL (≈ 0.456 µM)
[11]; MRSA / NRS 387
  MBC: 0.25 µg/mL (≈ 0.912 µM)
  MIC: 0.125 µg/mL (≈ 0.456 µM)
[11]; MRSA / NRS 483
  MBC: 0.5 µg/mL (≈ 1.82 µM)
  MIC: 0.125 µg/mL (≈ 0.456 µM)
[11]; MRSA / NRS 484, NRS 484, read-out: MBC
  MBC: 0.25 µg/mL (≈ 0.912 µM)
[11]; MRSA / NRS 484, NRS 484, read-out: MIC
  MIC: 0.25 µg/mL (≈ 0.912 µM)
[12]; read-out: MBC
  MBC: 0.5 µM (≈ 0.137 µg/mL)
[12]; read-out: MIC
  MIC: < 0.5 µM
[13]
  MBC: 0.5 µg/mL (≈ 1.82 µM)
  MIC: 0.5 µg/mL (≈ 1.82 µM)
[14]
  MBC: 1 µM (≈ 0.274 µg/mL)
[14]; read-out: MIC
  MIC: 0.5 µM (≈ 0.137 µg/mL)
